These results are taken from ChEMBL document CHEMBL1201862, “PubChem BioAssay data set” (2004).

Each structure is given as a SMILES string.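 Cultured in 96-well plates, cells were exposed to test compound for 48 hours across five concentrations. GI50: concentration for 50% inhibition of growth.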 Activity calls are given as the source filed them. No stated cut-off is given here; in the data, active = GI50 up to about 1.1 µM and inactive = higher. Some results are limits rather than exact numbers.

Test systems include CAKI-1; DU-145; HCC 2998; HCT-116; KM12; MDA-MB-231; NCI-H226; NCI-H23; NCI-H460; NCI/ADR-RES; OVCAR-3; OVCAR-4; SF-539; SK-MEL-28; SK-MEL-2; SNB-75; TK-10; U-251; UO-31; OVCAR-8.
What all share (assay): NCI anticancer screen, dose series, 48 h

For `C=C(Br)CNC(=O)Nc1ccc(Cl)c(Cl)c1`, the GI50 is 20.4 µM (inactive) in the test on CAKI-1; 23.6 µM (inactive) in the test on DU-145; 18.5 µM (inactive) with HCC 2998; 17.1 µM (inactive) with HCT-116; 17.3 µM (inactive) in the test on KM12; 15.2 µM (inactive) in the test with MDA-MB-231. The GI50 is 25.4 µM (inactive) with NCI-H226; 15.6 µM (inactive) in the test with NCI-H23; 26.5 µM (inactive) in the test on NCI-H460; 16.6 µM (inactive) with NCI/ADR-RES; 13.4 µM (inactive) in the test with OVCAR-3; 29.5 µM (inactive) with OVCAR-4. Further, the GI50 was 19.3 µM (inactive) in the test with SF-539; 28.1 µM (inactive) with SK-MEL-28; 12.6 µM (inactive) with SK-MEL-2; 21.3 µM (inactive) in the test on SNB-75; 25.8 µM (inactive) in the test with TK-10; 22.6 µM (inactive) in the test on U-251. In the test with UO-31, the GI50 is 11.4 µM (inactive).
As for `CCC(O)c1ccc(/N=C/c2ccccc2O)cc1` (configuration not stated), the GI50 in the test with CAKI-1 was > 100 µM (inactive); with DU-145, > 100 µM (inactive); with HCC 2998 it was > 100 µM (inactive); in the test with HCT-116 it was 74.1 µM (inactive); in the test on KM12, > 100 µM (inactive); with MDA-MB-231 it was > 100 µM (inactive). Further, the GI50 with NCI-H226, in the test on NCI-H23, in the test with NCI-H460, with NCI/ADR-RES, in the test with OVCAR-3 and in the test with OVCAR-4 was > 100 µM (inactive) in each case. Further, the GI50 with SF-539, in the test on SK-MEL-28, in the test with SK-MEL-2, in the test with SNB-75, with TK-10 and in the test on U-251 was > 100 µM (inactive) throughout. Also, the GI50 in the test with UO-31 was > 100 µM (inactive).
For the molecule `CC(C)(C)c1cc[n+](C[n+]2ccc(C(C)(C)C)cc2)cc1`, the GI50 with CAKI-1, in the test on DU-145, with HCC 2998, in the test with HCT-116, with KM12 and in the test with MDA-MB-231 was > 100 µM (inactive) throughout. The GI50 with NCI-H226, with NCI-H23, with NCI-H460, in the test with NCI/ADR-RES, in the test with OVCAR-3 and with OVCAR-4 was > 100 µM (inactive) in each case. Besides, the GI50 in the test on OVCAR-8, with SF-539, in the test on SK-MEL-28, with SK-MEL-2, in the test with SNB-75 and with TK-10 was > 100 µM (inactive) each time. In addition, the GI50 in the test on U-251 and with UO-31 was > 100 µM (inactive) throughout.
As to `COc1cc(C2c3cc4c(cc3OC(N3CCOCC3)C2C)OCO4)cc(OC)c1OC` (configuration not stated), the GI50 with CAKI-1 is 0.522 µM (active); in the test on DU-145, 0.368 µM (active); in the test with HCC 2998 it was 1.23 µM (inactive); in the test on HCT-116, 0.65 µM (active); in the test with KM12, 0.367 µM (active); in the test on MDA-MB-231, 2.84 µM (inactive). The GI50 with NCI-H226 was 2.6 µM (inactive); in the test with NCI-H23, 1.38 µM (inactive); in the test with NCI-H460, 1.34 µM (inactive); in the test on NCI/ADR-RES, 0.335 µM (active); in the test on OVCAR-3 it was 0.589 µM (active); in the test on OVCAR-4, > 23.7 µM (inactive). Also, the GI50 was 1.62 µM (inactive) in the test with OVCAR-8; 0.462 µM (active) in the test with SF-539; 17.2 µM (inactive) in the test with SK-MEL-28; 2.02 µM (inactive) in the test with SK-MEL-2; 5.19 µM (inactive) in the test with SNB-75; 4.42 µM (inactive) with TK-10. The GI50 was 0.893 µM (active) with U-251 and 1.86 µM (inactive) in the test with UO-31.
For `Cn1nc(S(N)(=O)=O)s/c1=N/S(=O)(=O)c1ccc(N)cc1`, the GI50 in the test on CAKI-1, in the test with DU-145, with HCC 2998, in the test with KM12, in the test with MDA-MB-231 and with NCI-H226 was > 100 µM (inactive) throughout. Also, the GI50 in the test with NCI-H23, with NCI-H460, in the test with NCI/ADR-RES, in the test on OVCAR-3, with OVCAR-4 and in the test with OVCAR-8 was > 100 µM (inactive) each time. Besides, the GI50 in the test with SF-539, in the test with SK-MEL-28, in the test on SK-MEL-2, in the test on SNB-75, with TK-10 and with U-251 was > 100 µM (inactive) in each case. For the same molecule, in the test on UO-31, the GI50 is > 100 µM (inactive).
For `C/C(=N/NC(=S)N(C)CCc1ccccn1)c1cnccn1`, the GI50 was < 0.01 µM (active) in the test on CAKI-1; 0.378 µM (active) in the test with DU-145; 1.4 µM (inactive) in the test with HCC 2998; < 0.01 µM (active) with HCT-116; 0.0406 µM (active) with KM12; < 0.01 µM (active) in the test on MDA-MB-231. The GI50 in the test on NCI-H226 was < 0.01 µM (active); with NCI-H23 it was < 0.01 µM (active); in the test on NCI-H460, 0.047 µM (active); with NCI/ADR-RES, < 0.01 µM (active); in the test on OVCAR-3, < 0.01 µM (active); in the test with OVCAR-4, < 0.01 µM (active). Besides, the GI50 is < 0.01 µM (active) with OVCAR-8; 0.118 µM (active) with SF-539; 0.933 µM (active) in the test with SK-MEL-28; 4.78 µM (inactive) with SK-MEL-2; 4.19 µM (inactive) in the test on SNB-75; < 0.01 µM (active) in the test on TK-10. The GI50 in the test with U-251 was < 0.01 µM (active); with UO-31, < 0.0182 µM (active).
Turning to `O=C1CCC2SC1CCC2=O`, the GI50 in the test on CAKI-1, in the test on DU-145, in the test with HCC 2998, with HCT-116, with KM12 and with MDA-MB-231 was > 100 µM (inactive) in each case. The GI50 in the test on NCI-H226, in the test with NCI-H23, in the test on NCI-H460, with NCI/ADR-RES, with OVCAR-3 and in the test with OVCAR-4 was > 100 µM (inactive) throughout. In addition, the GI50 in the test on OVCAR-8, in the test with SF-539, in the test with SK-MEL-28, in the test with SK-MEL-2, with SNB-75 and with TK-10 was > 100 µM (inactive) each time. Further, the GI50 in the test on U-251 and in the test on UO-31 was > 100 µM (inactive) each time.
As for `O=C(/C=C/c1cc(O)c(O)cc1O)OCCc1ccccc1`, the GI50 is 24.5 µM (inactive) with CAKI-1; > 52.6 µM (inactive) in the test on DU-145; > 72.1 µM (inactive) in the test on HCC 2998; > 41.7 µM (inactive) in the test with HCT-116; 62.4 µM (inactive) in the test with KM12; 23.5 µM (inactive) with MDA-MB-231. The GI50 with NCI-H226 was 35.6 µM (inactive); with NCI-H23 it was 24.2 µM (inactive); in the test on NCI-H460 it was 34.5 µM (inactive); in the test with NCI/ADR-RES, 27.2 µM (inactive); in the test on OVCAR-3 it was 10.3 µM (inactive); in the test on OVCAR-4, 17.7 µM (inactive). Besides, the GI50 in the test with OVCAR-8 is 9.57 µM (inactive); with SF-539, 18.6 µM (inactive); in the test with SK-MEL-28, 21 µM (inactive); with SK-MEL-2 it was 20.8 µM (inactive); in the test with SNB-75, 56 µM (inactive); with TK-10, 6.11 µM (inactive). Also, the GI50 is 27.7 µM (inactive) in the test with U-251 and 10.3 µM (inactive) in the test on UO-31.
For the molecule `Clc1cc(OCc2nn3c(Cc4ccccc4)nnc3s2)ccc1OCc1nn2c(Cc3ccccc3)nnc2s1`, the GI50 in the test on CAKI-1 was 21.1 µM (inactive); in the test on DU-145 it was 29.6 µM (inactive); with HCC 2998, 44.1 µM (inactive); with HCT-116, 53.5 µM (inactive); in the test with KM12, 79.8 µM (inactive); in the test with MDA-MB-231 it was 18.5 µM (inactive). The GI50 is 54.6 µM (inactive) in the test with NCI-H226; 38.9 µM (inactive) in the test with NCI-H23; 65.8 µM (inactive) with NCI-H460; 59.3 µM (inactive) in the test on NCI/ADR-RES; 29.9 µM (inactive) with OVCAR-3; 19.4 µM (inactive) with OVCAR-4. Further, the GI50 in the test with OVCAR-8 is 20.7 µM (inactive); in the test with SF-539, 16.2 µM (inactive); in the test on SK-MEL-28, 42.2 µM (inactive); with SK-MEL-2, > 100 µM (inactive); in the test on SNB-75, 15.6 µM (inactive); in the test on TK-10, 29.4 µM (inactive). The GI50 was 21.6 µM (inactive) with U-251 and 39.4 µM (inactive) with UO-31.
As to `CC(=O)OCC1OC(OC(C)=O)C(Nc2ncc(-c3ccc(C)cc3)s2)C(OC(C)=O)C1OC(C)=O` (configuration not stated), the GI50 in the test with CAKI-1 was 16.9 µM (inactive); with DU-145 it was 31.3 µM (inactive); in the test with HCC 2998, 29.7 µM (inactive); in the test with HCT-116, 16.4 µM (inactive); with KM12, > 10 µM (inactive); in the test on MDA-MB-231 it was 19.9 µM (inactive). In addition, the GI50 in the test with NCI-H226 is 26.4 µM (inactive); with NCI-H23, 12 µM (inactive); in the test on NCI-H460, 18.5 µM (inactive); in the test on NCI/ADR-RES, 30.6 µM (inactive); in the test with OVCAR-3, 19.3 µM (inactive); in the test with OVCAR-4, 16.9 µM (inactive). For the same molecule, the GI50 was 24 µM (inactive) in the test on OVCAR-8; 20.7 µM (inactive) with SF-539; 17.4 µM (inactive) with SK-MEL-28; 22.6 µM (inactive) in the test with SK-MEL-2; 15.5 µM (inactive) with SNB-75; 18.8 µM (inactive) in the test with TK-10. The GI50 with U-251 is 17 µM (inactive); in the test on UO-31, 14.7 µM (inactive).
